{"source": "paper PMC11306024", "about": "“Novel metabolite madeirone and neomarinone extracted from Streptomyces aculeoletus as marine antibiofilm and antifouling agents” (Frontiers in Chemistry, 2024)", "key": {"[1]": {"system": "P. inhibens", "assay": "Antibacterial activity (growth inhibition, OD600)", "assay_type": "cell-based, Phaeobacter inhibens DSM 17395", "settings": "0.16 µg/mL, 48 h, positive control", "procedure": "(§1) To assess antimicrofouling activity, we selected five marine bacterial species as models: Marinobacter hydrocarbonoclasticus DSM 8798 (ATCC 49840), C. marina DSM 4741, Phaeobacter inhibens DSM 17,395, Pseusooceanicola batsensis DSM 15,984, and Micrococcus luteus DSM 20030 (ATCC 4698) ([Michael et al., 2016]). These strains, sourced from DSMZ (Leibniz Institute DSMZ—German Collection of Microorganisms and Cell Cultures), were cultured in liquid marine broth (Carl Roth GmbH, Karlsruhe, Germany) with agitation at 180 rpm or on agar-supplemented marine broth. Incubation temperatures were set at 28°C for M. hydrocarbonoclasticus and Cobetia marina, 30°C for P. inhibens and P. batsensis, while M. luteus was maintained at 37°C in Brain Heart Infusion broth (BHI, Becton Dickinson, GmbH, Heidelberg, Germany) under similar agitation conditions.\n(§2) The antibacterial efficacy of compounds (1) and (2) was assessed in 96-well polystyrene flat-bottom microplates (Nunclon Delta Surface, Thermo Scientific, Roskilde, Denmark) following established procedures ([Bauermeister et al., 2019]). In the initial screening, bacterial overnight cultures were diluted to an optical density (OD600nm) of 0.2 and incubated statically at appropriate temperatures. The cultures were treated with the following final concentrations per well: 31.25, 15.60, 7.81, 3.91, 1.95, and 0.98 μg/mL (2-fold serial dilutions) of the compounds, solubilized in DMSO, or left untreated. After 24 h (M. hydrocarbonoclasticus, C. marina) or 48 h (P. batsensis, P. inhibens, M. luteus) incubation, optical density at 600 nm (OD600) was measured using a Molecular Devices Spectra Max 190. Growth inhibition percentages were calculated relatively to untreated bacterial species, using DMSO as a negative control. CuSO4 (0.16 μg/mL), a recognized antifouling agent, was used as positive control. All assays were conducted in triplicate, and the results represent the mean and standard error of the mean (SEM). Statistical analysis was carried out using GraphPad Prism 8.0.2 (San Diego, CA, United States), employing one-way ANOVA followed by Dunnett’s multiple comparisons test against the negative control."}, "[2]": {"system": "P. batsensis", "assay": "Antibacterial activity (growth inhibition, OD600)", "assay_type": "cell-based, Pseudo-oceanicola batsensis DSM 15984", "settings": "0.16 µg/mL, 48 h, positive control", "procedure": "as §1, §2"}, "[3]": {"system": "M. hydrocarbonoclasticus", "assay": "Antibacterial activity (growth inhibition, OD600)", "assay_type": "cell-based, Marinobacter hydrocarbonoclasticus DSM 8798", "settings": "0.16 µg/mL, 24 h, positive control", "procedure": "as §1, §2"}, "[4]": {"system": "C. marina", "assay": "Antibacterial activity (growth inhibition, OD600)", "assay_type": "cell-based, Cobetia marina DSM 4741", "settings": "0.16 µg/mL, 24 h, positive control", "procedure": "as §1, §2"}, "[5]": {"system": "M. luteus", "assay": "Antibacterial activity (growth inhibition, OD600)", "assay_type": "cell-based, Micrococcus luteus DSM 20030", "settings": "0.16 µg/mL, 48 h, positive control", "procedure": "as §1, §2"}, "[6]": {"system": "P. inhibens", "assay": "Antibiofilm activity (inhibition of biofilm formation)", "assay_type": "cell-based, Phaeobacter inhibens DSM 17395", "settings": "0.16 µg/mL, 48 h, positive control", "procedure": "as §1\n(§3) The antibiofilm potential of compounds (1) and (2) against the five marine bacterial species was investigated in 96-well polystyrene flat-bottom microplates (Nunclon Delta Surface, Thermo Scientific, Roskilde, Denmark), as described previously ([Bauermeister et al., 2019]; [Pereira et al., 2020]). In the initial screening, bacterial overnight cultures were diluted to an OD600 of 0.2 and incubated statically at appropriate temperatures. The cultures were tested at 31.25, 15.60, 7.81, 3.91, 1.95, 0.98 μg/mL concentrations (2-fold serial dilutions) of compounds (1) and (2), solubilized in DMSO, or left untreated. After 24 h (M. hydrocarbonoclasticus, C. marina) or 48 h (P. batsensis, P. inhibens, M. luteus) incubation, OD600 was measured. The planktonic cells and media were discarded, and the wells were washed twice with deionized water. Biofilms were fixed, stained, and quantified by measuring the OD600 after solubilization with acetic acid. Biofilm inhibition percentages were calculated relative to untreated bacterial species, using DMSO as a negative control and CuSO4 (0.16 μg/mL), as a positive control. All assays were performed in triplicate, and the results represent the mean and standard error of the mean (SEM). Statistical analysis was conducted using GraphPad Prism 8.0.2, employing one-way ANOVA followed by Dunnett’s multiple comparisons test against the negative control."}, "[7]": {"system": "P. batsensis", "assay": "Antibiofilm activity (inhibition of biofilm formation)", "assay_type": "cell-based, Pseudo-oceanicola batsensis DSM 15984", "settings": "0.16 µg/mL, 48 h, positive control", "procedure": "as §1, §3"}, "[8]": {"system": "M. hydrocarbonoclasticus", "assay": "Antibiofilm activity (inhibition of biofilm formation)", "assay_type": "cell-based, Marinobacter hydrocarbonoclasticus DSM 8798", "settings": "0.16 µg/mL, 24 h, positive control", "procedure": "as §1, §3"}, "[9]": {"system": "C. marina", "assay": "Antibiofilm activity (inhibition of biofilm formation)", "assay_type": "cell-based, Cobetia marina DSM 4741", "settings": "0.16 µg/mL, 24 h, positive control", "procedure": "as §1, §3"}, "[10]": {"system": "M. luteus", "assay": "Antibiofilm activity (inhibition of biofilm formation)", "assay_type": "cell-based, Micrococcus luteus DSM 20030", "settings": "0.16 µg/mL, 48 h, positive control", "procedure": "as §1, §3"}, "[11]": {"system": "Aliivibrio fischeri", "assay": "Inhibition of bioluminescence (ISO 11348-3 micro adaptation)", "assay_type": "cell-based", "settings": "100 µg/mL", "procedure": "The in vivo evaluation of compounds (1) and (2) for acute toxicity was performed towards marine bacterium Aliivibrio fischeri, and planktonic crustacean Daphnia magna. The chronic ecotoxicity tests were evaluated using algae Pseudokirchneriella subcapitata and Phaeodactylum tricornutum.\nThe inhibition of bioluminescence of the marine bacterium A. fischeri, were studied following a micro adaptation of the standard procedure ISO 11348-3 (“Water Quality-Determination of the inhibitory effect of water samples on the light emission of Vibrio fischeri - Luminescent bacteria test–using freeze-dried bacteria method”). Briefly, frozen lyophilized bacterial cells (Abraxis, Warminster, PA, United States) were reconstituted in Reconstitution Solution, supplied by the manufacturer of the Abratox kit (Abraxis). Madeirone (1) and neomarinone (2) were dissolved in DMSO and tested at the concentrations of 100, 50, 25, 12.5, 6.25, 3.13, and 1.56 μg/mL. The emitted luminescence was measured using a luminometer at time 0 min and at different exposure times (5, 15 and 30 min) and the percentage of inhibition of bioluminescence was determined. Each experiment was performed in duplicate and the results of three independent experiments with <10% SD are presented. Phenol was used as a positive control."}, "[12]": {"system": "Oral rat/rabit", "parameters": "method as in Tišler and Zagorc-končan, 2003", "settings": "ref Tišler and Zagorc-končan, 2003; cited from earlier work"}, "[13]": {"system": "Fish Orcorhynchus mykiss", "settings": "ref Tišler and Zagorc-končan, 2003; cited from earlier work"}, "[14]": {"system": "Daphnia magna", "settings": "ref Tišler and Zagorc-končan, 2003; cited from earlier work"}, "[15]": {"system": "Alga Scenedesmus quadricauda", "settings": "cited from earlier work"}, "[16]": {"system": "Daphnia magna", "settings": "cited from earlier work"}, "[17]": {"system": "Oral rat", "settings": "from reported data; ref Tišler and Zagorc-končan, 2003; cited from earlier work"}, "[18]": {"system": "M. edulis", "parameters": "method as in Davies et al., 1997", "settings": "against M. edulis; ref Davies et al., 1997; cited from earlier work"}}, "note": "Where two headings read alike, the source gives them in different places."}
{"compound": "O=S(=O)([O-])[O-].[Cu+2]", "note": "[CuSO4, reference compound]", "values": [{"measurement": "Growth inhibition (%) P. inhibens", "setting": "[1]", "result": "66.2 ± 5.6", "unit": "%"}, {"measurement": "Growth inhibition (%) P. batsensis", "setting": "[2]", "result": "44.8 ± 6.3", "unit": "%"}, {"measurement": "Growth inhibition (%) M. hydrocarbonoclasticus", "setting": "[3]", "result": "35.8 ± 0.8", "unit": "%"}, {"measurement": "Growth inhibition (%) C. marina", "setting": "[4]", "result": "No inhibition and N.I."}, {"measurement": "Growth inhibition (%) M. luteus", "setting": "[5]", "result": "No inhibition and N.I."}, {"measurement": "Biofilm inhibition (%) P. inhibens", "setting": "[6]", "result": "12.9 ± 6.4", "unit": "%"}, {"measurement": "Biofilm inhibition (%) P. batsensis", "setting": "[7]", "result": "41.4 ± 0.9", "unit": "%"}, {"measurement": "Biofilm inhibition (%) M. hydrocarbonoclasticus", "setting": "[8]", "result": "no observable inhibition and N.I."}, {"measurement": "Biofilm inhibition (%) C. marina", "setting": "[9]", "result": "no observable inhibition and N.I."}, {"measurement": "Biofilm inhibition (%) M. luteus", "setting": "[10]", "result": "no observable inhibition and N.I."}]}
{"compound": "Oc1ccccc1", "note": "[Phenol, reference compound]", "values": [{"measurement": "Inhibition (%) A. fischeri (bioluminescence)", "setting": "[11]", "result": 19.8, "unit": "%"}]}
{"compound": "[Cu]", "note": "[compound 8, copper]", "values": [{"measurement": "Oral rat/rabit LD50", "setting": "[12]", "result": 140, "unit": "mg/kg"}, {"measurement": "Fish Orcorhynchus mykiss 96 h LC50", "setting": "[13]", "result": 0.48, "unit": "mg/L"}, {"measurement": "Daphnia magna 48 h LC50", "setting": "[14]", "result": 0.030, "unit": "mg/L"}, {"measurement": "Alga Scenedesmus quadricauda 21 days NOEC", "setting": "[15]", "result": 0.18, "unit": "mg/L"}, {"measurement": "Daphnia magna 21 days NOEC", "setting": "[16]; in vivo", "result": 0.015, "unit": "mg/L"}, {"measurement": "ATE category", "setting": "[17]", "result": "3 (category 3, 50 < ATE ≤300 mg/kg, labeled as (“Toxic if swallowed”))"}]}
{"compound": "[As]", "note": "[compound 9, arsenic]", "values": [{"measurement": "Oral rat/rabit LD50", "setting": "[12]", "result": 12, "unit": "mg/kg"}, {"measurement": "Fish Orcorhynchus mykiss 96 h LC50", "setting": "[13]", "result": 15.3, "unit": "mg/L"}, {"measurement": "Daphnia magna 48 h LC50", "setting": "[14]", "result": 2.5, "unit": "mg/L"}, {"measurement": "Alga Scenedesmus quadricauda 21 days NOEC", "setting": "[15]; footnote d as printed, ref Tišler and Zagorc-končan, 2003", "result": 34.5, "unit": "mg/L"}, {"measurement": "Daphnia magna 21 days NOEC", "setting": "[16]; ref Tišler and Zagorc-končan, 2003", "result": 1.85, "unit": "mg/L"}, {"measurement": "ATE category", "setting": "[17]", "result": "2 (category 2, 5 < ATE ≤50 mg/kg, also classified as “Fatal if swallowed”)"}]}
{"compound": "ivermectin", "values": [{"measurement": "EC50", "setting": "[18]", "result": 0.4, "unit": "mg/L"}]}
